Numbers after ± are expanded uncertainties.
experiment: refractive index (Na D-line) (dimensionless); conditions: 293.1 K; 101.33 kPa; Liquid; Standard Abbe refractometry

refractive index	Compound
1.489 ± 0.0007	CCC(C)c1ccccc1 (stereo not drawn) [(1-methylpropyl)benzene]
1.4281 ± 0.0007	CN(C)C=O [dimethylformamide]
1.422 ± 0.0007	CCCCCCCCCCCC [dodecane]

Source: the NIST ThermoML archive (doi:10.1016/j.fluid.2005.12.006)
